In one series the target is T1, TRPC3 (Homo sapiens, UniProt Q13507).
T1 sequence (Q13507 1-921): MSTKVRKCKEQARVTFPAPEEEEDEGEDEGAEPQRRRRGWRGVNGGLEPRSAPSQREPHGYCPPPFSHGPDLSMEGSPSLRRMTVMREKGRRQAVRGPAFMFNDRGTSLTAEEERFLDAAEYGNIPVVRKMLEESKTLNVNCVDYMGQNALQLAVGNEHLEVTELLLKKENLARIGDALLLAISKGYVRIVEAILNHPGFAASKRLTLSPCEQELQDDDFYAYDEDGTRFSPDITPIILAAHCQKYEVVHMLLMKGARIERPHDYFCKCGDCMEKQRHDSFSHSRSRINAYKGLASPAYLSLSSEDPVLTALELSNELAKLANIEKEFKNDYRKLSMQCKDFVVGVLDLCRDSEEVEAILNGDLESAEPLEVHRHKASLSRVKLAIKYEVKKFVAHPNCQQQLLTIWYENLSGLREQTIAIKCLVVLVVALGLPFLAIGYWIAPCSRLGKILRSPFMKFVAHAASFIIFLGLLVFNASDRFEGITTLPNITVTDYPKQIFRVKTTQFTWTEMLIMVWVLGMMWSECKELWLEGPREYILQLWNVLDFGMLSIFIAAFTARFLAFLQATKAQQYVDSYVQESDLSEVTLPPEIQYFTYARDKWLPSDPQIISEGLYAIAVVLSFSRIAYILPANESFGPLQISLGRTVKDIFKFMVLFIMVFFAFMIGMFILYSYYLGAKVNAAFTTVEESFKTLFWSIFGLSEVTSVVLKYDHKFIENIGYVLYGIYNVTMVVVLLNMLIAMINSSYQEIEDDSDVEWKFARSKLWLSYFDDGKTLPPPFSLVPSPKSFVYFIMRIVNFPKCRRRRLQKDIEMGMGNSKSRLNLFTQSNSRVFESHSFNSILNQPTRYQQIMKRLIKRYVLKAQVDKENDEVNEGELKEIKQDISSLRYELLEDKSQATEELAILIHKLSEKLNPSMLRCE
Briefly: whole-cell patch clamp of HEK293 cells transfected with hTRPC3, currents activated by GSK1702934A. Format: cell-based. More on the design: expressed in transfected cells; host or cells: HEK293 (CRL-1573), transient transfection, pMO vector. Summed up:
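Whole-cell patch clamp on HEK293 cells co-transfected with hTRPC3 and GFP, recorded 18-24 h post-transfection. Bath held 140 mM NaCl, pH 7.4; pipette held 140 mM CsCl/5 mM EGTA, pH 7.2. Currents came from 1-s ramps −100 to 100 mV with GSK1702934A; compounds screened at 10 μM, IC50 from single-cell dose points.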

Series [1] in a line: metabolic stability in human liver microsomes. Format: in vitro ADME. As to conditions: human, microsomes. Here is the method:
(§1) The metabolic stability of compound 22 was tested prior to the next phase of in vivo study. […] The maximum tolerated dose (MTD) study was subsequently performed to investigate its in vivo toxicity (FIGS. 4A and 4B). The second major limitation of Pyr3 is its toxicity due to its alkylating tail moiety. While replacing only the fast-metabolizing head ester group in Pyr3 with a stable amide (compound 79) improved metabolic stability, a single IP injection of compound 79 at 200 mg/kg killed all mice within 24 h.

A short description of series [2]: metabolic stability in rat liver microsomes. The format is in vitro ADME. As to conditions: rat, microsomes. As to the method: as §1

Where two headings read alike, the source gives them in different places.

Regarding `CCNC(=O)c1cnn(-c2ccc(-n3ccc(Cl)c(Cl)c3=O)cc2)c1C(F)(F)F` [Compound 22], the inhibition at 10 µM on TRPC3 (10 μM compound in presence of agonist GSK1702934A, HEK293 whole-cell peak current, read-out: hTRPC3 % Inhibition at 10 μM (mean ± SEM)) is 89 ± 1.14%. Besides, the 50% inhibitory concentration (IC50) is 0.37 ± 0.03 µM at TRPC3 (agonist GSK1702934A, HEK293 whole-cell patch clamp, read-out: hTRPC3 IC50 (μM, mean ± SEM)); 0.51 µM on TRPC3 (same value expressed in ng/ml, read-out: TRPC3 IC50 displayed in FIG. 6 (converted)); 0.51 µM at TRPC3 (value shown in brain concentration figure, read-out: TRPC3 IC50 displayed in FIG. 6 (converted)). Also, the half-life in series [1] and in series [2] was more than 4 h throughout.

Source of the values: US20230265068A1, “TRANSIENT RECEPTOR POTENTIAL CANONICAL 3 INHIBITORS AND METHODS OF USE THEREOF” (University of Tennessee Research Foundation, priority 2020, published 2023).
